# According to the NIST ThermoML archive (doi:10.1016/j.fluid.2014.10.002):
# Several values for one entry are separate records, joined by “and”; a condition that tells them apart may be missing. Identical values can stand only once. Numbers after ± are expanded uncertainties.
# Conditions: Liquid, Vibrating wire viscometry
smiles,measurement,setting,value
CCCCC(CC)COC(=O)c1ccc(C(=O)OCC(CC)CCCC)c(C(=O)OCC(CC)CCCC)c1 (stereo unspecified) [tris(2-ethylhexyl) trimellitate],viscosity,"343.14 K, 49870 kPa",53.82 ± 1.4 mPa·s and 53.79 ± 1.4 mPa·s
same,viscosity,"343.14 K, 50340 kPa",53.74 ± 1.4 mPa·s
same,viscosity,"343.14 K, 50350 kPa",53.88 ± 1.4 mPa·s
same,viscosity,"343.14 K, 50360 kPa",53.81 ± 1.4 mPa·s and 53.95 ± 1.4 mPa·s and 53.91 ± 1.4 mPa·s
same,viscosity,"343.14 K, 65050 kPa",68.46 ± 1.5 mPa·s
same,viscosity,"343.14 K, 65060 kPa",68.25 ± 1.5 mPa·s
same,viscosity,"343.14 K, 65070 kPa",68.22 ± 1.5 mPa·s
same,viscosity,"343.14 K, 65080 kPa",68.37 ± 1.5 mPa·s
same,viscosity,"343.14 K, 65100 kPa",68.38 ± 1.5 mPa·s
same,viscosity,"343.15 K, 1040 kPa",22.81 ± 0.5 mPa·s
same,viscosity,"343.15 K, 1050 kPa",22.74 ± 0.5 mPa·s
same,viscosity,"343.15 K, 1060 kPa",22.78 ± 0.5 mPa·s
same,viscosity,"343.15 K, 1070 kPa",22.74 ± 0.5 mPa·s
same,viscosity,"343.15 K, 1090 kPa",22.81 ± 0.5 mPa·s
same,viscosity,"343.15 K, 2540 kPa",23.48 ± 0.49 mPa·s and 23.4 ± 0.5 mPa·s
same,viscosity,"343.15 K, 2580 kPa",23.42 ± 0.49 mPa·s
same,viscosity,"343.15 K, 4800 kPa",24.49 ± 0.52 mPa·s
same,viscosity,"343.15 K, 4820 kPa",24.51 ± 0.52 mPa·s
same,viscosity,"343.15 K, 4880 kPa",24.44 ± 0.52 mPa·s
same,viscosity,"343.15 K, 4900 kPa",24.44 ± 0.52 mPa·s and 24.52 ± 0.52 mPa·s and 24.43 ± 0.52 mPa·s
same,viscosity,"343.15 K, 7530 kPa",25.82 ± 0.54 mPa·s
same,viscosity,"343.15 K, 7590 kPa",25.76 ± 0.54 mPa·s
same,viscosity,"343.15 K, 7630 kPa",25.78 ± 0.54 mPa·s
same,viscosity,"343.15 K, 7650 kPa",25.77 ± 0.54 mPa·s
same,viscosity,"343.15 K, 10140 kPa",27.08 ± 0.57 mPa·s
same,viscosity,"343.15 K, 15040 kPa",29.65 ± 0.63 mPa·s and 29.63 ± 0.63 mPa·s
same,viscosity,"343.15 K, 15050 kPa",29.64 ± 0.63 mPa·s
same,viscosity,"343.15 K, 15060 kPa",29.74 ± 0.63 mPa·s
same,viscosity,"343.15 K, 15070 kPa",29.73 ± 0.63 mPa·s
same,viscosity,"343.15 K, 15090 kPa",29.74 ± 0.63 mPa·s
same,viscosity,"358.18 K, 2460 kPa",14.15 ± 0.3 mPa·s
same,viscosity,"358.18 K, 2470 kPa",14.13 ± 0.3 mPa·s
same,viscosity,"358.18 K, 2480 kPa",14.11 ± 0.3 mPa·s
same,viscosity,"358.18 K, 2490 kPa",14.11 ± 0.3 mPa·s
same,viscosity,"358.18 K, 2500 kPa",14.16 ± 0.3 mPa·s
same,viscosity,"358.18 K, 2530 kPa",14.14 ± 0.3 mPa·s
same,viscosity,"358.18 K, 4840 kPa",14.65 ± 0.31 mPa·s
same,viscosity,"358.18 K, 4860 kPa",14.68 ± 0.31 mPa·s
same,viscosity,"358.18 K, 4920 kPa",14.69 ± 0.31 mPa·s
same,viscosity,"358.18 K, 4960 kPa",14.64 ± 0.31 mPa·s
same,viscosity,"358.18 K, 4990 kPa",14.64 ± 0.31 mPa·s
same,viscosity,"358.18 K, 7360 kPa",15.35 ± 0.32 mPa·s
same,viscosity,"358.18 K, 7370 kPa",15.37 ± 0.32 mPa·s
same,viscosity,"358.18 K, 7390 kPa",15.35 ± 0.32 mPa·s
same,viscosity,"358.18 K, 7410 kPa",15.34 ± 0.32 mPa·s
same,viscosity,"358.18 K, 7420 kPa",15.37 ± 0.32 mPa·s and 15.38 ± 0.32 mPa·s
same,viscosity,"358.18 K, 10350 kPa",16.11 ± 0.34 mPa·s
same,viscosity,"358.18 K, 10380 kPa",16.12 ± 0.34 mPa·s
same,viscosity,"358.18 K, 10410 kPa",16.11 ± 0.34 mPa·s
same,viscosity,"358.18 K, 15320 kPa",17.52 ± 0.37 mPa·s
same,viscosity,"358.18 K, 20050 kPa",18.99 ± 0.4 mPa·s
same,viscosity,"358.18 K, 20070 kPa",19.03 ± 0.4 mPa·s and 18.97 ± 0.4 mPa·s
same,viscosity,"358.18 K, 20090 kPa",18.99 ± 0.4 mPa·s
same,viscosity,"358.18 K, 20120 kPa",18.99 ± 0.4 mPa·s
same,viscosity,"358.18 K, 20130 kPa",19.05 ± 0.4 mPa·s
same,viscosity,"358.18 K, 40240 kPa",26.25 ± 0.55 mPa·s
same,viscosity,"358.18 K, 40250 kPa",26.27 ± 0.55 mPa·s
same,viscosity,"358.18 K, 40260 kPa",26.24 ± 0.55 mPa·s
same,viscosity,"358.18 K, 40280 kPa",26.21 ± 0.55 mPa·s
same,viscosity,"358.18 K, 40290 kPa",26.24 ± 0.55 mPa·s
same,viscosity,"358.19 K, 1290 kPa",13.79 ± 0.3 mPa·s
same,viscosity,"358.19 K, 1330 kPa",13.79 ± 0.3 mPa·s
same,viscosity,"358.19 K, 1380 kPa",13.85 ± 0.3 mPa·s
same,viscosity,"358.19 K, 10470 kPa",16.13 ± 0.34 mPa·s
same,viscosity,"358.19 K, 15340 kPa",17.51 ± 0.37 mPa·s
same,viscosity,"358.19 K, 15360 kPa",17.51 ± 0.37 mPa·s
same,viscosity,"358.19 K, 15370 kPa",17.52 ± 0.37 mPa·s
same,viscosity,"358.19 K, 15390 kPa",17.53 ± 0.37 mPa·s
same,viscosity,"358.19 K, 15410 kPa",17.54 ± 0.37 mPa·s
same,viscosity,"358.19 K, 30310 kPa",22.42 ± 0.47 mPa·s
same,viscosity,"358.19 K, 30360 kPa",22.4 ± 0.5 mPa·s
same,viscosity,"358.19 K, 30380 kPa",22.43 ± 0.47 mPa·s and 22.47 ± 0.47 mPa·s and 22.46 ± 0.47 mPa·s
same,viscosity,"358.19 K, 50360 kPa",30.62 ± 0.64 mPa·s
same,viscosity,"358.19 K, 50380 kPa",30.63 ± 0.64 mPa·s
same,viscosity,"358.19 K, 50390 kPa",30.61 ± 0.64 mPa·s
same,viscosity,"358.19 K, 50400 kPa",30.65 ± 0.65 mPa·s
same,viscosity,"358.19 K, 50420 kPa",30.65 ± 0.65 mPa·s
same,viscosity,"358.19 K, 65540 kPa",38.26 ± 0.81 mPa·s
same,viscosity,"358.19 K, 65550 kPa",38.23 ± 0.81 mPa·s
same,viscosity,"358.19 K, 65570 kPa",38.28 ± 0.81 mPa·s
same,viscosity,"358.19 K, 65600 kPa",38.23 ± 0.81 mPa·s
same,viscosity,"358.19 K, 65610 kPa",38.23 ± 0.81 mPa·s
same,viscosity,"373.17 K, 1070 kPa",8.988 ± 0.19 mPa·s and 8.981 ± 0.19 mPa·s and 8.984 ± 0.19 mPa·s
same,viscosity,"373.17 K, 1080 kPa",8.99 ± 0.19 mPa·s
same,viscosity,"373.17 K, 2690 kPa",9.227 ± 0.2 mPa·s
same,viscosity,"373.17 K, 2720 kPa",9.242 ± 0.2 mPa·s
same,viscosity,"373.17 K, 2730 kPa",9.241 ± 0.2 mPa·s
same,viscosity,"373.17 K, 5100 kPa",9.651 ± 0.2 mPa·s
same,viscosity,"373.17 K, 5110 kPa",9.649 ± 0.2 mPa·s and 9.654 ± 0.2 mPa·s
same,viscosity,"373.17 K, 5120 kPa",9.651 ± 0.2 mPa·s
same,viscosity,"373.17 K, 5130 kPa",9.669 ± 0.2 mPa·s
same,viscosity,"373.17 K, 5140 kPa",9.653 ± 0.2 mPa·s
same,viscosity,"373.17 K, 7440 kPa",10.06 ± 0.21 mPa·s
same,viscosity,"373.17 K, 7470 kPa",10.05 ± 0.21 mPa·s
same,viscosity,"373.17 K, 7480 kPa",10.03 ± 0.21 mPa·s
same,viscosity,"373.17 K, 7500 kPa",10.03 ± 0.21 mPa·s
same,viscosity,"373.17 K, 10430 kPa",10.53 ± 0.22 mPa·s
same,viscosity,"373.17 K, 10450 kPa",10.57 ± 0.22 mPa·s
same,viscosity,"373.17 K, 15160 kPa",11.29 ± 0.24 mPa·s
same,viscosity,"373.17 K, 15180 kPa",11.28 ± 0.24 mPa·s
same,viscosity,"373.17 K, 15210 kPa",11.32 ± 0.24 mPa·s and 11.33 ± 0.24 mPa·s and 11.27 ± 0.24 mPa·s
same,viscosity,"373.17 K, 65290 kPa",23.71 ± 0.5 mPa·s
same,viscosity,"373.18 K, 2460 kPa",9.209 ± 0.19 mPa·s and 9.224 ± 0.19 mPa·s and 9.213 ± 0.19 mPa·s
same,viscosity,"373.18 K, 2470 kPa",9.234 ± 0.19 mPa·s
same,viscosity,"373.18 K, 2500 kPa",9.245 ± 0.2 mPa·s
same,viscosity,"373.18 K, 2710 kPa",9.252 ± 0.2 mPa·s
same,viscosity,"373.18 K, 10440 kPa",10.57 ± 0.22 mPa·s
same,viscosity,"373.18 K, 10450 kPa",10.52 ± 0.22 mPa·s
same,viscosity,"373.18 K, 10460 kPa",10.56 ± 0.22 mPa·s
same,viscosity,"373.18 K, 20250 kPa",12.27 ± 0.26 mPa·s and 12.26 ± 0.26 mPa·s
same,viscosity,"373.18 K, 20260 kPa",12.27 ± 0.26 mPa·s
same,viscosity,"373.18 K, 20270 kPa",12.29 ± 0.26 mPa·s
same,viscosity,"373.18 K, 20290 kPa",12.3 ± 0.3 mPa·s
same,viscosity,"373.18 K, 20320 kPa",12.28 ± 0.26 mPa·s
same,viscosity,"373.18 K, 29980 kPa",14.31 ± 0.3 mPa·s
same,viscosity,"373.18 K, 29990 kPa",14.32 ± 0.3 mPa·s
same,viscosity,"373.18 K, 30000 kPa",14.27 ± 0.3 mPa·s
same,viscosity,"373.18 K, 30010 kPa",14.3 ± 0.3 mPa·s
same,viscosity,"373.18 K, 30030 kPa",14.28 ± 0.3 mPa·s
same,viscosity,"373.18 K, 40130 kPa",16.58 ± 0.35 mPa·s
same,viscosity,"373.18 K, 40140 kPa",16.57 ± 0.35 mPa·s
same,viscosity,"373.18 K, 40150 kPa",16.63 ± 0.35 mPa·s
same,viscosity,"373.18 K, 40170 kPa",16.61 ± 0.35 mPa·s
same,viscosity,"373.18 K, 40190 kPa",16.64 ± 0.35 mPa·s
same,viscosity,"373.18 K, 50280 kPa",19.18 ± 0.4 mPa·s
same,viscosity,"373.18 K, 50290 kPa",19.21 ± 0.4 mPa·s and 19.23 ± 0.41 mPa·s
same,viscosity,"373.18 K, 50310 kPa",19.17 ± 0.4 mPa·s
same,viscosity,"373.18 K, 50320 kPa",19.23 ± 0.41 mPa·s
same,viscosity,"373.18 K, 65330 kPa",23.7 ± 0.5 mPa·s
same,viscosity,"373.18 K, 65350 kPa",23.72 ± 0.5 mPa·s
same,viscosity,"373.18 K, 65370 kPa",23.68 ± 0.5 mPa·s
